Paper PMC9508196 (Scientific Reports, 2022)
In brackets after ≈: the same amount, converted by molar mass. Non-standard residues stand in square brackets, D forms with d. Residues, ends and D or L forms follow the SMILES beside them. No end group written: not given here.

Columns and labels:
A. baumannii ATCC 19,606 [1] = test: microbe, parasite or virus in culture; conditions: 20 serial 24-h passages at half-MIC, MHB
Method: A. baumannii ATCC 19,606 was adjusted to approximately 10^6 CFU/ml in MHB. […] After 24 h incubation, bacterial suspensions of the wells at half-MIC concentration of tested agent were taken and washed 2 times with MHB to prepare the next initial-passage of bacteria. Twenty repeat passages were performed for each tested compound. Along with the test, a negative control was included: the MIC value of bacteria cultured in MHB-deionized water after 20 passages.

A. baumannii ATCC 19,606 [2] = test: Peptide sensitivity to physiological salts (MIC/MBC); format: cell-based, Acinetobacter baumannii; conditions: for MBC in the presence of FeCl3 / MIC in the presence of FeCl3: MHB with 4 µM FeCl3; for MBC in the presence of NH4Cl / MIC in the presence of NH4Cl: MHB with 6 µM NH4Cl; for MBC in the presence of ZnCl2 / MIC in the presence of ZnCl2: MHB with 8 µM ZnCl2; for MBC in the presence of MgCl2 / MIC in the presence of MgCl2: MHB with 1 mM MgCl2; for MBC in the presence of KCl / MIC in the presence of KCl: MHB with 4.5 mM KCl; for MBC in the presence of NaCl / MIC in the presence of NaCl: MHB with 150 mM NaCl; for MBC in the presence of CaCl2 / MIC in the presence of CaCl2: MHB with […] CaCl2; for MBC, control / MIC, control: control: absence of serum salts, MHB
Method: (§1) Minimum inhibitory concentration (MIC) of peptides and antibiotics was assessed by a modified version of the broth microdilution method from the Clinical and Laboratory Standards Institute (CLSI) as previously described. In brief, mid-log phase growths of microbial strains were cultured in Müeller-Hinton broth (MHB) with an initial inoculum of 2–8 × 10^5 CFU/mL. Bacteria suspensions were incubated in sterile 96-well plates with test agents at desired concentrations. […] Minimum bactericidal concentration (MBC) determination was performed using a modified version of the colony count assay. In brief, fifty µl of all non-turbid wells from MIC experiments were spread on agar plates. The MBC value was defined as the lowest concentration of peptides with no colony growth on the plate. All assays were performed in triplicate.
The MIC and MBC assays were performed after peptide was exposed to various conditions, including proteolytic enzymes, serum salts and human plasma. […] To determine peptide sensitivity to physiological salts, approximately 5 × 10^5 CFU/ml of A. baumannii ATCC 19,606 was mixed with the MHB containing different physiological salts at final concentration as follows: 150 mM NaCl, 4.5 mM KCl, 1 mM MgCl2, 6 µM NH4Cl, 8 µM ZnCl2, 4 µM FeCl3 and […]. After treatment, the MIC was evaluated as described in 2.4. To test the stability of peptides in human plasma, peptide was mixed with pure human plasma, and the mixture was incubated for 1 h at 37 °C. Then, the mixture was two-fold serially diluted with sterile MHB. The peptides at final concentrations of 0.98 to 250 µg/ml were incubated with an equal volume of bacterial suspension at 37 °C for 24 h. MIC values were determined as described in 2.4.

[3] = tested on: human red blood cells (hRBCs); test: Hemolysis assay; format: cell-based; conditions: hRBCs, peptide 250 µg/mL, 1 h, 37 °C
Method: The hemolytic activity of peptides was determined as the amount of hemoglobin released from lysed human red blood cells (hRBCs) after treatment with peptide. Fresh hRBCs were collected from a healthy volunteer in polycarbonate tubes containing heparin. Then, the collected packed RBCs were washed at least three times (or until the supernatant was clear) with sterile phosphate-buffered saline pH 7.4 (PBS) and centrifuged at 2,000 × g for 5 min. The 2% (v/v) of washed hRBCs in PBS were incubated with serially diluted peptides (0.98 to 250 μg/ml) for 1 h at 37 °C. After centrifugation, the supernatants were monitored for optical density (OD) at 405 nm using a Multiskan FC Microplate Reader[21]. Values for 0% (negative control) and 100% (positive control) lysis were determined by incubating the hRBCs with PBS only (ODBlank) and 0.1% (v/v) Triton X-100 (ODTriton X-100), respectively. The experiments were performed in triplicate. The percent hemolysis was calculated according to the following equation: %Hemolysis=ODSample-ODBlank/ODTriton X-100-ODBlank×100

[4] = tested on: Staphylococcus aureus ATCC 25,923; format: cell-based; conditions: S. aureus ATCC 25,923; broth microdilution, MHB, 24 h, 37 °C, triplicate
From the text: (§2) Ten strains of both Gram-positive and -negative bacteria, including Staphylococcus aureus ATCC 25,923, S. epidermidis ATCC 12,228, Bacillus cereus ATCC 11,778, Listeria monocytogenes 10403S, Salmonella typhimurium ATCC 13,311, Pseudomonas aeruginosa ATCC 27,853, Shigella sonnei ATCC 11,060, A. baumannii ATCC 19,606, Escherichia coli ATCC 25,922 and E. coli O157:H7, were used in this study. Eight clinical isolates of multidrug-resistant (MDR) and extensively drug-resistant (XDR) A. baumannii, isolated from human (blood, sputum, respiratory sample, sterile site sample and urine), were kindly provided by Asst. Prof. Dr. Sakawrat Kanthawong (Faculty of Medicine, Khon Kaen University, Thailand) (Table S1). All bacterial strains, excluding L. monocytogenes 10403S and E. coli, were cultured in tryptic soy broth (TSB). L. monocytogenes was grown in TSB supplemented with 0.6% yeast extract (TSB-YE), and E. coli was cultured in Luria broth (LB). All of bacteria were cultured at 37 °C with continuous shaking at 220 rpm.
as §1

[5] = tested on: Escherichia coli ATCC 25,922; format: cell-based; conditions: E. coli ATCC 25,922; broth microdilution, MHB, 24 h, 37 °C, triplicate
From the text: as §2, §1

[6] = tested on: Bacillus cereus ATCC 11,778; format: cell-based; conditions: B. cereus ATCC 11,778; broth microdilution, MHB, 24 h, 37 °C, triplicate
From the text: as §2, §1

[7] = tested on: Escherichia coli O157:H7 MT strain; format: cell-based; conditions: E. coli O157:H7 MT strain; broth microdilution, MHB, 24 h, 37 °C, triplicate
From the text: as §2, §1

[8] = tested on: Shigella sonnei ATCC 11,060; format: cell-based; conditions: S. sonnei ATCC 11,060; broth microdilution, MHB, 24 h, 37 °C, triplicate
From the text: as §2, §1

[9] = tested on: Listeria monocytogenes 10403S; format: cell-based; conditions: L. monocytogenes 10403S; broth microdilution, MHB, 24 h, 37 °C, triplicate
From the text: as §2, §1

[10] = tested on: Salmonella Typhimurium ATCC 13,311; format: cell-based; conditions: S. Typhimurium ATCC 13,311; broth microdilution, MHB, 24 h, 37 °C, triplicate
From the text: as §2, §1

[11] = tested on: Pseudomonas aeruginosa ATCC 27,853; format: cell-based; conditions: P. aeruginosa ATCC 27,853; broth microdilution, MHB, 24 h, 37 °C, triplicate
From the text: as §2, §1

Molecule	MBC in the presence of FeCl3 (A. baumannii ATCC 19,606 [2])	MIC in the presence of FeCl3 (A. baumannii ATCC 19,606 [2])	MBC in the presence of NH4Cl (A. baumannii ATCC 19,606 [2])	MIC in the presence of NH4Cl (A. baumannii ATCC 19,606 [2])	MBC in the presence of ZnCl2 (A. baumannii ATCC 19,606 [2])	MIC in the presence of ZnCl2 (A. baumannii ATCC 19,606 [2])	MBC in the presence of MgCl2 (A. baumannii ATCC 19,606 [2])	MIC in the presence of MgCl2 (A. baumannii ATCC 19,606 [2])	MBC in the presence of KCl (A. baumannii ATCC 19,606 [2])	MIC in the presence of KCl (A. baumannii ATCC 19,606 [2])	MBC in the presence of NaCl (A. baumannii ATCC 19,606 [2])	MIC in the presence of NaCl (A. baumannii ATCC 19,606 [2])	MBC in the presence of CaCl2 (A. baumannii ATCC 19,606 [2])	MIC in the presence of CaCl2 (A. baumannii ATCC 19,606 [2])	MBC, control (A. baumannii ATCC 19,606 [2])	MIC, control (A. baumannii ATCC 19,606 [2])	Hemolysis [3] [%]	also measured
CC[C@@H](C)[C@@H](NC(=O)[C@@H](CCCCN)NC(=O)CNC(=O)[C@@H](C)NC(=O)[C@H](NC(=O)[C@@H](CCCCN)NC(=O)[C@@H](CCCCN)NC(=O)[C@H](NC(=O)[C@@H](CCCNC(=N)N)NC(=O)[C@@H](CCCNC(=N)N)NC(=O)[C@@H](Cc1ccccc1)NC(=O)[C@@H](CC(C)C)NC(=O)[C@H](N)CCCNC(=N)N)C(C)C)C(C)C)C(=O)N[C@H](C)C(=O)N[C@H](CCCCN)C(=O)N[C@H](CCCNC(=N)N)C(=O)N[C@@H](C(=O)N[C@H](Cc1c[nH]c2ccccc12)C(=O)N[C@H](CCCCN)C(N)=O)[C@H](C)CC [D-AP19] (H-[dR][dL][dF][dR][dR][dV][dK][dK][dV][dA]G[dK][dI][dA][dK][dR][dI][dW][dK]-NH2)	15.63(15.63) µg/ml	15.63(15.63) µg/ml	7.81(7.81) µg/ml	7.81(7.81) µg/ml	15.63(15.63) µg/ml	15.63(15.63) µg/ml	7.81(7.81) µg/ml	7.81(7.81) µg/ml	15.63(15.63) µg/ml	15.63(15.63) µg/ml	62.5(62.5) µg/ml	62.5(62.5) µg/ml	15.63(15.63) µg/ml	15.63(15.63) µg/ml	7.81(7.81) µg/ml	7.81(7.81) µg/ml	3.28	MIC after 20 passages (A. baumannii ATCC 19,606 [1]): 7.81 µg/mL (≈ 3.32 µM)
RLFRRVKKVAGKIAKRIWK-NH2 [AP19]	7.81(7.81) µg/ml	7.81(7.81) µg/ml	7.81(7.81) µg/ml	7.81(7.81) µg/ml	7.81(7.81) µg/ml	7.81(7.81) µg/ml	7.81(7.81) µg/ml	7.81(7.81) µg/ml	7.81(7.81) µg/ml	7.81(7.81) µg/ml	31.25(31.25) µg/ml	31.25(31.25) µg/ml	7.81(7.81) µg/ml	7.81(7.81) µg/ml	7.81(7.81) µg/ml	7.81(7.81) µg/ml	7.25	MIC [4]: 7.81 µg/mL; MIC [5]: 3.91 µg/mL; MIC [6]: 7.81 µg/mL; MIC [7]: 15.63 µg/mL; MIC [8]: 3.91 µg/mL; MIC [9]: 3.91 µg/mL; MIC [10]: 1.95 µg/mL; MIC [11]: 3.91 µg/mL
